Assays:
[1] = test system: ENR+CD organoids (ISC to Paneth cell differentiation); experiment: Primary screen: basal (non-stimulated) lysozyme secretion LYZ.NS, 2.5-D 384-well ENR+CD organoid differentiation; type: cell-based, mouse
Text: (§1) High-throughput screening.

[2] = test system: ENR+CD organoids (ISC to Paneth cell differentiation); experiment: Primary screen: CCh-stimulated lysozyme secretion LYZ.S, 2.5-D 384-well ENR+CD organoid differentiation; type: cell-based, mouse; conditions: primary screen
Text: as §1

ENR+CD organoids = experiment: Primary screen: ATP (CellTiter-Glo 3D, CTG) cell number/viability, 2.5-D 384-well ENR+CD organoids;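 note: compounds given at plating and again on day 3 over a 6-day differentiation from ENR+CV stem-cell-enriched precursors, ATP measured on day 6, plate median as control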
[3] = primary screen, standard z score, dose 0.08 uM
[4] = primary screen, standard z score, dose 0.40 uM
[5] = primary screen, standard z score, dose 2.00 uM
[6] = primary screen, standard z score, dose 10.00 uM
[7] = primary screen, dose 0.08 uM, standard z score
[8] = primary screen, dose 0.40 uM, standard z score
[9] = primary screen, dose 2.00 uM, standard z score
[10] = primary screen, dose 10.00 uM, standard z score
[11] = primary screen; dose 0.08 uM; FC vs plate median
[12] = primary screen; dose 0.40 uM; FC vs plate median
[13] = primary screen; dose 2.00 uM; FC vs plate median
[14] = primary screen; dose 10.00 uM; FC vs plate median
[15] = dose 0.08 uM, FC vs plate median
[16] = dose 0.40 uM, FC vs plate median
[17] = dose 2.00 uM, FC vs plate median
[18] = dose 10.00 uM, FC vs plate median
[19] = primary screen, dose 0.08 uM, FC relative to plate median
[20] = primary screen, dose 0.40 uM, FC relative to plate median
[21] = primary screen, dose 2.00 uM, FC relative to plate median
[22] = primary screen, dose 10.00 uM, FC relative to plate median
[23] = dose 0.08 uM, FC relative to plate median
[24] = dose 0.40 uM, FC relative to plate median
[25] = dose 2.00 uM, FC relative to plate median
[26] = dose 10.00 uM, FC relative to plate median

Row | Compound | Dose.FC.LYZ.NS ([1]; primary screen, dose 0.08 uM) [log2 fold change] | Dose.FC.LYZ.NS ([1]; primary screen, dose 0.40 uM) [log2 fold change] | Dose.FC.LYZ.NS ([1]; primary screen, dose 2.00 uM) [log2 fold change] | Dose.FC.LYZ.NS ([1]; primary screen, dose 10.00 uM) [log2 fold change] | Dose.FC.LYZ.S ([2]; dose 0.08 uM) [log2 fold change] | Dose.FC.LYZ.S ([2]; dose 0.40 uM) [log2 fold change] | Dose.FC.LYZ.S ([2]; dose 2.00 uM) [log2 fold change] | Dose.FC.LYZ.S ([2]; dose 10.00 uM) [log2 fold change] | Dose.FC.CTG (ENR+CD organoids; primary screen, dose 0.08 uM) [log2 fold change] | Dose.FC.CTG (ENR+CD organoids; primary screen, dose 0.40 uM) [log2 fold change] | Dose.FC.CTG (ENR+CD organoids; primary screen, dose 2.00 uM) [log2 fold change] | Dose.FC.CTG (ENR+CD organoids; primary screen, dose 10.00 uM) [log2 fold change] | Z.LYZ.NS [1, 3] | Z.LYZ.NS [1, 4] | Z.LYZ.NS [1, 5] | Z.LYZ.NS [1, 6] | Z.LYZ.NS [1, 7] | Z.LYZ.NS [1, 8] | Z.LYZ.NS [1, 9] | Z.LYZ.NS [1, 10] | other results
1 | COc1cc(N2CCC(N)CC2)ccc1Nc1ncc(Cl)c(-c2c[nH]c3ccccc23)n1 [AZD3463] | −0.147 | −0.190 | −0.232 | −0.209 | −0.199 | −0.293 | −0.315 | −0.328 | −0.275 | −0.341 | −0.772 | −0.960 | – | – | – | – | – | – | – | – | Z.LYZ.NS (standard z score) ([1]; primary screen, dose 0.08 uM): −1.279; Z.LYZ.NS (standard z score) ([1]; primary screen, dose 0.40 uM): −1.652; Z.LYZ.NS (standard z score) ([1]; primary screen, dose 2.00 uM): −2.021; Z.LYZ.NS (standard z score) ([1]; primary screen, dose 10.00 uM): −1.820; Z.CTG (standard z score) (ENR+CD organoids; primary screen, dose 0.08 uM): −0.657; Z.CTG (standard z score) (ENR+CD organoids; primary screen, dose 0.40 uM): −0.814; Z.CTG (standard z score) (ENR+CD organoids; primary screen, dose 2.00 uM): −1.843; Z.CTG (standard z score) (ENR+CD organoids; primary screen, dose 10.00 uM): −2.293
2 | CNC(=O)c1ccc(N2C(=S)N(c3ccc(C#N)c(C(F)(F)F)c3)C(=O)C2(C)C)cc1F [Enzalutamide (MDV3100)] | 0.162 | 0.166 | 0.024 | 0.094 | 0.176 | 0.276 | 0.077 | 0.076 | 0.195 | 0.256 | 0.076 | 0.146 | 1.411 | 1.446 | 0.210 | 0.820 | – | – | – | – | Z.CTG (ENR+CD organoids; [3]): 0.465; Z.CTG (ENR+CD organoids; [4]): 0.611; Z.CTG (ENR+CD organoids; [5]): 0.181; Z.CTG (ENR+CD organoids; [6]): 0.348
3 | CCC(CC)(NC(=O)C(C)C)C(=O)N[C@@H](CCCN=C(N)N)C(=O)NC1(C(=O)NC(c2ccc(F)cc2)c2ccc(F)cc2)CCCC1 [MM-102] | – | – | – | – | – | – | – | – | – | – | – | – | – | – | – | – | −0.220 | −0.090 | 0.230 | −1.424 | Dose.FC.LYZ.NS [1, 11]: −0.025 log2 fold change; Dose.FC.LYZ.NS [1, 12]: −0.010 log2 fold change; Dose.FC.LYZ.NS [1, 13]: 0.026 log2 fold change; Dose.FC.LYZ.NS [1, 14]: −0.164 log2 fold change; Dose.FC.LYZ.S [2, 15]: −0.027 log2 fold change; Dose.FC.LYZ.S [2, 16]: −0.001 log2 fold change; Dose.FC.LYZ.S [2, 17]: −0.035 log2 fold change; Dose.FC.LYZ.S [2, 18]: −0.194 log2 fold change; Z.CTG (ENR+CD organoids; [7]): −0.489; Z.CTG (ENR+CD organoids; [8]): −0.315; Z.CTG (ENR+CD organoids; [9]): −0.557; Z.CTG (ENR+CD organoids; [10]): −0.964; Dose.FC.CTG (ENR+CD organoids; [11]): −0.205 log2 fold change; Dose.FC.CTG (ENR+CD organoids; [12]): −0.132 log2 fold change; Dose.FC.CTG (ENR+CD organoids; [13]): −0.233 log2 fold change; Dose.FC.CTG (ENR+CD organoids; [14]): −0.403 log2 fold change
4 | COc1ccccc1N1CCN(CC(O)COc2cccc3ccccc23)CC1 (stereo not drawn) [Naftopidil] | – | – | – | – | – | – | – | – | – | – | – | – | – | – | – | – | −0.325 | −0.713 | −0.171 | −0.638 | Dose.FC.LYZ.NS [1, 11]: −0.037 log2 fold change; Dose.FC.LYZ.NS [1, 12]: −0.082 log2 fold change; Dose.FC.LYZ.NS [1, 13]: −0.020 log2 fold change; Dose.FC.LYZ.NS [1, 14]: −0.073 log2 fold change; Dose.FC.LYZ.S [2, 15]: 0.015 log2 fold change; Dose.FC.LYZ.S [2, 16]: −0.128 log2 fold change; Dose.FC.LYZ.S [2, 17]: −0.097 log2 fold change; Dose.FC.LYZ.S [2, 18]: −0.079 log2 fold change; Dose.FC.CTG (ENR+CD organoids; [11]): −0.039 log2 fold change; Dose.FC.CTG (ENR+CD organoids; [12]): −0.161 log2 fold change; Dose.FC.CTG (ENR+CD organoids; [13]): −0.179 log2 fold change; Dose.FC.CTG (ENR+CD organoids; [14]): −0.132 log2 fold change
5 | CN(C)C(=O)[C@H](O)[C@H](Cc1ccccc1)NC(=O)c1cc2cc(Cl)ccc2[nH]1 [CP-91149] | 0.177 | −0.033 | 0.028 | −0.057 | 0.186 | 0.055 | −0.121 | −0.097 | 0.031 | −0.023 | −0.098 | −0.100 | 1.538 | −0.289 | 0.245 | −0.498 | – | – | – | – | Z.CTG (ENR+CD organoids; [3]): 0.073; Z.CTG (ENR+CD organoids; [4]): −0.056; Z.CTG (ENR+CD organoids; [5]): −0.234; Z.CTG (ENR+CD organoids; [6]): −0.239
6 | CCN(c1cc(-c2ccc(CN3CCOCC3)cc2)cc(C(=O)NCc2c(C)cc(C)[nH]c2=O)c1C)C1CCOCC1 [EPZ-6438] | 0.012 | −0.023 | 0.015 | 0.062 | 0.003 | −0.023 | −0.011 | 0.046 | 0.045 | 0.075 | −0.068 | 0.336 | 0.108 | −0.203 | 0.130 | 0.538 | – | – | – | – | –
7 | CCOC(=O)c1cncn1[C@H](C)c1ccccc1 [Etomidate] | −0.008 | 0.037 | 0.015 | −0.001 | 0.053 | 0.048 | 0.054 | −0.008 | 0.084 | 0.006 | 0.163 | 0.039 | −0.065 | 0.318 | 0.131 | −0.010 | – | – | – | – | –
8 | COc1ccc2cccc(CCNC(C)=O)c2c1 [Agomelatine] | 0.026 | 0.080 | 0.069 | −0.033 | 0.090 | 0.132 | −0.037 | 0.008 | 0.106 | 0.081 | −0.198 | 0.024 | – | – | – | – | – | – | – | – | Z.LYZ.NS (standard z score) ([1]; primary screen, dose 0.08 uM): 0.227; Z.LYZ.NS (standard z score) ([1]; primary screen, dose 0.40 uM): 0.695; Z.LYZ.NS (standard z score) ([1]; primary screen, dose 2.00 uM): 0.597; Z.LYZ.NS (standard z score) ([1]; primary screen, dose 10.00 uM): −0.285
9 | CC(C)(C)c1cnc(CSc2cnc(NC(=O)C3CCNCC3)s2)o1 [SNS-032 (BMS-387032)] | – | – | – | – | – | – | – | – | – | – | – | – | – | – | – | – | 0.428 | −1.241 | −2.399 | −2.214 | Dose.FC.LYZ.NS [1, 19]: 0.049 log2 fold change; Dose.FC.LYZ.NS [1, 20]: −0.143 log2 fold change; Dose.FC.LYZ.NS [1, 21]: −0.276 log2 fold change; Dose.FC.LYZ.NS [1, 22]: −0.254 log2 fold change; Dose.FC.LYZ.S [2, 23]: 0.070 log2 fold change; Dose.FC.LYZ.S [2, 24]: −0.206 log2 fold change; Dose.FC.LYZ.S [2, 25]: −0.301 log2 fold change; Dose.FC.LYZ.S [2, 26]: −0.361 log2 fold change; Dose.FC.CTG (ENR+CD organoids; [19]): −0.075 log2 fold change; Z.CTG (ENR+CD organoids; [7]): −0.180; Dose.FC.CTG (ENR+CD organoids; [20]): −0.083 log2 fold change; Z.CTG (ENR+CD organoids; [8]): −0.198; Dose.FC.CTG (ENR+CD organoids; [21]): −0.915 log2 fold change; Z.CTG (ENR+CD organoids; [9]): −2.186; Dose.FC.CTG (ENR+CD organoids; [22]): −1.009 log2 fold change; Z.CTG (ENR+CD organoids; [10]): −2.411
10 | CCCc1nc2c(C)cc(-c3nc4ccccc4n3C)cc2n1Cc1ccc(-c2ccccc2C(=O)O)cc1 [Telmisartan] | – | – | – | – | – | – | – | – | – | – | – | – | – | – | – | – | 1.213 | 1.124 | 0.499 | −0.060 | Dose.FC.LYZ.NS [1, 19]: 0.139 log2 fold change; Dose.FC.LYZ.NS [1, 20]: 0.129 log2 fold change; Dose.FC.LYZ.NS [1, 21]: 0.057 log2 fold change; Dose.FC.LYZ.NS [1, 22]: −0.007 log2 fold change; Dose.FC.LYZ.S [2, 23]: 0.140 log2 fold change; Dose.FC.LYZ.S [2, 24]: 0.106 log2 fold change; Dose.FC.LYZ.S [2, 25]: 0.063 log2 fold change; Dose.FC.LYZ.S [2, 26]: −0.003 log2 fold change; Dose.FC.CTG (ENR+CD organoids; [19]): 0.134 log2 fold change; Dose.FC.CTG (ENR+CD organoids; [20]): 0.244 log2 fold change; Dose.FC.CTG (ENR+CD organoids; [21]): 0.064 log2 fold change; Dose.FC.CTG (ENR+CD organoids; [22]): 0.230 log2 fold change
